Data from PMC5625148, “Arginine‐rich membrane‐permeable peptides are seriously toxic” (Pharmacology Research & Perspectives, 2017).
Where a name gives a salt, the structure may show the parent alone.

What was measured:
mice [1] = assay: Acute toxicity study in mice after intravenous (tail vein) injection of MPPs or MPP-conjugates; assay type: in vivo, mice (Kunming species)
Description: A total of 390 mice (Kunming species, 22 ± 2 g, sex matched), were provided by the Experimental animal center of Academy of military medical sciences, China. The health condition of the mice was examined to confirm their suitability for use in the study. The animal rooms were monitored and maintained under a 12 h light‐dark cycle with temperature ranging from 20 to 25°C and a relative humidity of 40–60%. All the mice were allowed to acclimate to the laboratory environment for 2 days, housed by sex in groups of five per cage, provided with standard commercial diet and drinking water ad libitum. All the animal procedures performed in this study were reviewed and approved by the Animal Experimental Welfare and Ethical Inspection Committee of the Chinese Center for Disease Control and Prevention (Approval number IACUC#15‐026).
Firstly, a preliminary sequential toxicity testing was carried to find out the scope of the dosage. Then four dosages within this range were properly selected to carry on the LD50 estimation. The LD50 was calculated avoid the all or none survival groups of mice.
Five males and five females per group were stratified by weight and assigned randomly. The control mice and those in groups 1, 2, 3, 4 were intravenously injected with different doses of MPPs or MPP‐conjugates. The general behavior and signs of toxicity were monitored for 3 h after administration, and carried on once a day up to 14 days. The surviving mice were euthanized while those died from the poisoning were necropsied.
All the data are expressed as the means ± standard deviation (SD), and comparisons among the different groups were performed using an analysis of variance (ANOVA). The IBM statistical package for the social science (SPSS) statistics 20 software was used for all the analysis. The significance level was set at 5 and 1% (P < 0.05 and P < 0.01). The LD50 value was determined according to the Bliss method (Badisa et al. 2008).

mice [2] = conditions: converted from rat value; ref Saka et al. 2004; cited from earlier work
Description: (§1) The mechanism of the poisonous effects caused by TAT and CTP is not yet well understood. However, it is known that L‐arginine stimulates the release of insulin and causes necrotic pancreatitis with specific elevation of amylase in serum and urine. […] Thus, the higher mass ratio of arginine residues in the conjugate (Table 4) might be the best explanation of the toxicity.

rats = conditions: ref Saka et al. 2004; cited from earlier work
Description: as §1

[3] = iv, Bliss method, five males and five females per group, observed up to 14 days, Table 2

NCCCC(=O)O [GABA, γ‐aminobutyric acid]
Toxicity in words (mice [1]; dose as high as 8000 mg kg^−1): not toxic at all
Survival rate (%) (mice [1]; iv, 8000 mg kg^−1): 100%

O=C(O)C(F)(F)F [TFA, Trifluoroacetic acid]
Toxicity in words (TFA control group) (mice [1]; 0.1% TFA solution): did not manifest any toxicity
Toxicity in words (TFA control group) (mice [1]; 0.5% TFA solution): did not manifest any toxicity
Toxicity in words (TFA control group) (mice [1]; 1% TFA solution): did not manifest any toxicity
Toxicity in words (TFA control group) (mice [1]; 2% TFA solution): death appeared in a part of the mice

N=C(N)NCCC[C@H](N)C(=O)O [arginine]
LD50 of arginine, corresponding value in mice (mice [2]): 542 mg/kg
LD50 of arginine in rats (rats): 3793 mg/kg

ACSSSPSKHCG [TD]
Survival rate (%) (mice [1]; iv, 140 mg kg^−1): 100%
LD50 (mice [1]; [3]): >140 mg/kg
Mortality (%) (mice [1]; iv, group 1, 80 mg kg^−1): 0%
Mortality (mice [1]; iv, group 1, 80 mg kg^−1, dead/total): 0/2
Mortality (%) (mice [1]; iv, group 2, 100 mg kg^−1): 0%
Mortality (mice [1]; iv, group 2, 100 mg kg^−1, dead/total): 0/8
Mortality (%) (mice [1]; iv, group 3, 140 mg kg^−1): 0%
Mortality (mice [1]; iv, group 3, 140 mg kg^−1, dead/total): 0/8
LD50 (mice [1]; iv, rounded values of Table 4): >140 mg/kg
Survival and side effects in words (mice [1]; tail vein, 140 mg kg^−1): all the mice well survived even without any side effect appeared

RRRRRRRRRRR [R11, undecapeptide composed purely of arginine residues, …]
LD50 (mice [1]; iv (tail vein), values in text): 16.5 mg/kg
Survival rate (%) (mice [1]; iv, 16.5 mg kg^−1): 50%
LD50 (mice [1]; [3]): 16.508 mg/kg
Mortality (%) (mice [1]; iv, group 1, 15.5 mg kg^−1): 10%
Mortality (mice [1]; iv, group 1, 15.5 mg kg^−1, dead/total): 1/10
Mortality (%) (mice [1]; iv, group 2, 16 mg kg^−1): 30%
Mortality (mice [1]; iv, group 2, 16 mg kg^−1, dead/total): 3/10
Mortality (%) (mice [1]; iv, group 3, 16.5 mg kg^−1): 50%
Mortality (mice [1]; iv, group 3, 16.5 mg kg^−1, dead/total): 5/10
Mortality (%) (mice [1]; iv, group 4, 17 mg kg^−1): 70%
Mortality (mice [1]; iv, group 4, 17 mg kg^−1, dead/total): 7/10
LD50 (mice [1]; iv, rounded values of Table 4): 16.5 mg/kg

YGRKKRRQRRR [TAT, arginine-rich membrane-permeable undecapeptide …]
LD50 (mice [1]; iv (tail vein), values in text): 27.244 mg/kg
Survival rate (%) (mice [1]; iv, 27 mg kg^−1): 50%
LD50 (mice [1]; [3]): 27.244 mg/kg
Mortality (%) (mice [1]; iv, group 1, 25 mg kg^−1): 22.2%
Mortality (mice [1]; iv, group 1, 25 mg kg^−1, dead/total): 2/9
Mortality (%) (mice [1]; iv, group 2, 27 mg kg^−1): 44.4%
Mortality (mice [1]; iv, group 2, 27 mg kg^−1, dead/total): 4/9
Mortality (%) (mice [1]; iv, group 3, 28 mg kg^−1): 55.6%
Mortality (mice [1]; iv, group 3, 28 mg kg^−1, dead/total): 5/9
Mortality (%) (mice [1]; iv, group 4, 30 mg kg^−1): 87.5%
Mortality (mice [1]; iv, group 4, 30 mg kg^−1, dead/total): 7/8
LD50 (mice [1]; iv, rounded values of Table 4): 27 mg/kg

YGRRARRRRRR [CTP, arginine-rich membrane-permeable undecapeptide […]]
LD50 (mice [1]; iv (tail vein), values in text): 21.345 mg/kg
Survival rate (%) (mice [1]; iv, 21 mg kg^−1): 50%
LD50 (mice [1]; [3]): 21.345 mg/kg
Mortality (%) (mice [1]; iv, group 1, 19.5 mg kg^−1): 20%
Mortality (mice [1]; iv, group 1, 19.5 mg kg^−1, dead/total): 2/10
Mortality (%) (mice [1]; iv, group 2, 20 mg kg^−1): 30%
Mortality (mice [1]; iv, group 2, 20 mg kg^−1, dead/total): 3/10
Mortality (%) (mice [1]; iv, group 3, 20.5 mg kg^−1): 36.4%
Mortality (%) (mice [1]; iv, group 4, 22 mg kg^−1): 60%
Mortality (mice [1]; iv, group 4, 22 mg kg^−1, dead/total): 6/10
LD50 (mice [1]; iv, rounded values of Table 4): 21 mg/kg
